Experimental data taken from ChEMBL document CHEMBL1201862, “PubChem BioAssay data set” (2004).
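Growth conditions: 96-well plates. Treatment: test compound, 48 hours, 5 concentrations. Analysis: linear interpolation between bracketing concentrations; unreached endpoints set to highest concentration. GI50: concentration for 50% inhibition of growth.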 The source made the active and inactive calls. No stated cut-off is given here; in the data, active = GI50 up to about 1.1 µM and inactive = higher.

Experiments:
Assay in all cases: NCI tumour cell line growth inhibition, 48 h
SF-539 = tested on: SF-539
DMS-114 = tested on: DMS-114
UACC-62 = tested on: UACC-62
SF-295 = tested on: SF-295
CCRF-CEM = tested on: CCRF-CEM
RPMI-8226 = tested on: RPMI-8226
SK-MEL-28 = tested on: SK-MEL-28
NCI-H23 = tested on: NCI-H23
IGROV-1 = tested on: IGROV-1
LOX IMVI = tested on: LOX IMVI
A498 = tested on: A498
EKVX = tested on: EKVX
HL-60 = tested on: HL-60
OVCAR-3 = tested on: OVCAR-3
CAKI-1 = tested on: CAKI-1
OVCAR-8 = tested on: OVCAR-8

N#CN=C(NCc1ccccc1)NCc1ccccc1
GI50 (SF-539): > 100 µM (inactive) | GI50 (DMS-114): > 38.3 µM (inactive) | GI50 (UACC-62): > 100 µM (inactive) | GI50 (SF-295): > 100 µM (inactive) | GI50 (CCRF-CEM): > 100 µM (inactive) | GI50 (RPMI-8226): > 100 µM (inactive) | GI50 (SK-MEL-28): > 100 µM (inactive) | GI50 (NCI-H23): > 100 µM (inactive) | GI50 (IGROV-1): > 100 µM (inactive) | GI50 (LOX IMVI): > 100 µM (inactive) | GI50 (A498): > 100 µM (inactive) | GI50 (EKVX): > 100 µM (inactive) | GI50 (HL-60): > 100 µM (inactive) | GI50 (OVCAR-3): > 100 µM (inactive) | GI50 (CAKI-1): > 100 µM (inactive) | GI50 (OVCAR-8): > 100 µM (inactive)

CCOC(=O)C12C(C(=O)OC)=C(C)N(NC(=O)Nc3ccccc3)C1(N)N(NC(=O)Nc1ccccc1)C(C)=C2C(=O)OC (stereo unspecified)
GI50 (SF-539): 18.9 µM (inactive) | GI50 (DMS-114): 31.9 µM (inactive) | GI50 (UACC-62): 18 µM (inactive) | GI50 (SF-295): 26.1 µM (inactive) | GI50 (CCRF-CEM): 23.7 µM (inactive) | GI50 (RPMI-8226): 25.9 µM (inactive) | GI50 (SK-MEL-28): 34.1 µM (inactive) | GI50 (NCI-H23): 37.4 µM (inactive) | GI50 (IGROV-1): 41.2 µM (inactive) | GI50 (LOX IMVI): 17 µM (inactive) | GI50 (A498): 30.1 µM (inactive) | GI50 (EKVX): 43.5 µM (inactive) | GI50 (HL-60): 23.6 µM (inactive) | GI50 (OVCAR-3): 22.9 µM (inactive) | GI50 (CAKI-1): 34.9 µM (inactive) | GI50 (OVCAR-8): 27.7 µM (inactive)

O=C1c2ccccc2C(=O)N1/N=C\c1ccc(Br)cc1
GI50 (SF-539): > 10 µM (inactive) | GI50 (DMS-114): > 10 µM (inactive) | GI50 (UACC-62): > 10 µM (inactive) | GI50 (SF-295): > 10 µM (inactive) | GI50 (CCRF-CEM): > 10 µM (inactive) | GI50 (RPMI-8226): > 10 µM (inactive) | GI50 (SK-MEL-28): > 10 µM (inactive) | GI50 (NCI-H23): > 10 µM (inactive) | GI50 (IGROV-1): > 10 µM (inactive) | GI50 (LOX IMVI): > 10 µM (inactive) | GI50 (A498): > 10 µM (inactive) | GI50 (EKVX): > 10 µM (inactive) | GI50 (HL-60): > 10 µM (inactive) | GI50 (OVCAR-3): > 10 µM (inactive) | GI50 (CAKI-1): > 10 µM (inactive) | GI50 (OVCAR-8): > 10 µM (inactive)

O=C(NCC(O)CNC(=O)C(F)(F)F)C(F)(F)F
GI50 (SF-539): > 100 µM (inactive) | GI50 (DMS-114): > 100 µM (inactive) | GI50 (UACC-62): > 100 µM (inactive) | GI50 (SF-295): > 100 µM (inactive) | GI50 (CCRF-CEM): > 100 µM (inactive) | GI50 (RPMI-8226): > 100 µM (inactive) | GI50 (NCI-H23): > 100 µM (inactive) | GI50 (IGROV-1): > 100 µM (inactive) | GI50 (LOX IMVI): > 100 µM (inactive) | GI50 (A498): > 100 µM (inactive) | GI50 (EKVX): > 100 µM (inactive) | GI50 (HL-60): > 100 µM (inactive) | GI50 (OVCAR-3): > 100 µM (inactive) | GI50 (CAKI-1): > 100 µM (inactive) | GI50 (OVCAR-8): > 100 µM (inactive)

Cc1ccc(N2C(=O)CS/C2=C(\C#N)c2nc3ccccc3[nH]2)cc1
GI50 (SF-539): > 100 µM (inactive) | GI50 (DMS-114): > 100 µM (inactive) | GI50 (UACC-62): 16.1 µM (inactive) | GI50 (CCRF-CEM): > 100 µM (inactive) | GI50 (RPMI-8226): > 100 µM (inactive) | GI50 (SK-MEL-28): > 100 µM (inactive) | GI50 (NCI-H23): > 100 µM (inactive) | GI50 (IGROV-1): > 100 µM (inactive) | GI50 (LOX IMVI): > 100 µM (inactive) | GI50 (A498): > 100 µM (inactive) | GI50 (EKVX): > 100 µM (inactive) | GI50 (HL-60): > 100 µM (inactive) | GI50 (OVCAR-3): > 100 µM (inactive) | GI50 (CAKI-1): > 100 µM (inactive) | GI50 (OVCAR-8): > 100 µM (inactive)

Cc1cc(Cl)ccc1N1C(=O)C(=O)C(c2nc3ccccc3s2)/C(=N\NC(=O)c2ccccc2O)C1=O (stereo unspecified)
GI50 (SF-539): > 100 µM (inactive) | GI50 (DMS-114): > 100 µM (inactive) | GI50 (UACC-62): > 100 µM (inactive) | GI50 (SF-295): > 100 µM (inactive) | GI50 (CCRF-CEM): > 100 µM (inactive) | GI50 (RPMI-8226): > 100 µM (inactive) | GI50 (SK-MEL-28): > 100 µM (inactive) | GI50 (NCI-H23): > 100 µM (inactive) | GI50 (IGROV-1): > 100 µM (inactive) | GI50 (LOX IMVI): > 100 µM (inactive) | GI50 (A498): > 100 µM (inactive) | GI50 (EKVX): > 100 µM (inactive) | GI50 (HL-60): > 100 µM (inactive) | GI50 (OVCAR-3): > 100 µM (inactive) | GI50 (CAKI-1): > 100 µM (inactive) | GI50 (OVCAR-8): > 100 µM (inactive)

CC(C)N(C(=O)C12C3C4C5(C#N)C3C1(I)C5C42I)C(C)C (stereo unspecified)
GI50 (SF-539): > 60.8 µM (inactive) | GI50 (DMS-114): > 42.5 µM (inactive) | GI50 (UACC-62): > 100 µM (inactive) | GI50 (SF-295): > 100 µM (inactive) | GI50 (CCRF-CEM): > 44.3 µM (inactive) | GI50 (RPMI-8226): > 49.8 µM (inactive) | GI50 (SK-MEL-28): > 100 µM (inactive) | GI50 (NCI-H23): > 100 µM (inactive) | GI50 (IGROV-1): > 100 µM (inactive) | GI50 (LOX IMVI): > 40.3 µM (inactive) | GI50 (A498): > 100 µM (inactive) | GI50 (EKVX): > 100 µM (inactive) | GI50 (HL-60): > 47.4 µM (inactive) | GI50 (OVCAR-3): > 100 µM (inactive) | GI50 (CAKI-1): > 100 µM (inactive) | GI50 (OVCAR-8): > 100 µM (inactive)

CN(C)CC(C)(C)C(=O)/C=C/c1ccc(/C=C/C(=O)C(C)(C)CN(C)C)cc1
GI50 (SF-539): 2.13 µM (inactive) | GI50 (DMS-114): 1.3 µM (inactive) | GI50 (UACC-62): 1.74 µM (inactive) | GI50 (SF-295): 2.05 µM (inactive) | GI50 (CCRF-CEM): 1.05 µM (active) | GI50 (RPMI-8226): 1.97 µM (inactive) | GI50 (SK-MEL-28): 1.87 µM (inactive) | GI50 (NCI-H23): 1.91 µM (inactive) | GI50 (IGROV-1): 1.71 µM (inactive) | GI50 (LOX IMVI): 0.456 µM (active) | GI50 (A498): 1.9 µM (inactive) | GI50 (EKVX): 1.45 µM (inactive) | GI50 (HL-60): 1.61 µM (inactive) | GI50 (OVCAR-3): 1.29 µM (inactive) | GI50 (CAKI-1): 1.42 µM (inactive) | GI50 (OVCAR-8): 2.39 µM (inactive)
